Reference: patent US20230159436A1, “APPLICATIONS OF AMIDE ANALOGS OF TRITERPENES IN CURES OF CANCER AND OTHER DISEASES” (Pacific Arrow Limited, priority 2021, published 2023)
Like-named read-outs stand apart in the source and are kept apart here.

Key:
[1] = Pharmacokinetic (PK) study: blood from cardiac puncture; assay type: in vivo, mice; settings: IP 100 mg/kg, estimated
Description: Pharmacokinetic (PK) Study: Blood from Cardiac Puncture • Method: • Drug-Treatment: • Mice: CD-1 female mice (8-10 weeks, 25-30 g) • mice were injected (IP) with Test Drug (10 mg/ml, in 10% DMSO-20% Tween-80 in PBS) at a dose of 100 mg/kg. • At 1 and 2 hours after drug treatments, individual animals were anesthetized with isoflurane. • blood was obtained by cardiac puncture (between the chest-ribs bones). Animals were then euthanized by cervical dislocation. • Plasma Isolation: • Blood (0.6-0.8 ml) was centrifuged (2000 g, 15 minutes). Plasma was collected from the top layer. • 1 volume of plasma was mixed with 3 volume of acetonitrile/0.005% TFA. Mixture was stored in −20° C. for 6 minutes. • Sample was centrifuged (16000 g, 10 minutes). Supernatant was subjected to HPLC analysis. • HPLC Analysis Conditions: • Column: C18 μBondapak • Solvent: 60% acetonitrile/0.005% TFA (Trifluoroacetic acid) • Gradient: isocratic • Flow rate and run time: 1 ml/min for 30 minutes • Detection wavelength: 207 nm • O.D. range: 0.05 full scale • Calculation: • Standard cures of Test Drug is constructed (Area/3000K=1 ug Test Drug) • Area of Test Drug peak from Sample is Recorded • Amount of Test Drug was calculated according to standard cures.

DU145 = test: MTT assay, prostate (DU145); assay type: cell-based
Description: (§1) Cells. HTB-9 (bladder), HeLa-S3 (cervix), DU145 (prostate), H460 (lung), MCF-7 (breast), K562 (leukemia), HCT116 (colon), HepG2 (liver), U2OS (bone), T98G (brain), SK-MEL-5 (Skin) and OVCAR 3, ES2 (ovary), Pancreas (Capan), Mouth (KB), Kidney (A498).
(§2) MTT Assay. The procedure for MTT assay followed the method described by Carmichael et al. (1987) with modifications. The cells were seeded into a 96-well plate at for 24 hours before drug-treatment. The cells were then exposed to the drugs for 48, 72, or 96 hours. After the drug-treatment, MTT (0.5 mg/mL) was added to cultures and incubated for an hour. The formazan (product of the reduction of tetrazolium by viable cells) formed and was dissolved with DMSO and the O.D. at 490 nm, and was measured by an ELISA reader. The MTT level of the cells before drug-treatment was also measured (T0). The % cell-growth (% G) is calculated as: % G=(TD−T0/TC−T0)×100(1), where TC or TD represents O.D. readings of control or drug-treated cells.
(§3) When T0>TD, then the cytotoxicity (LC) expressed as % of the control is calculated as: % LC=(TD−T0/T0)×100(2).

A498 = test: MTT assay, kidney (A498); assay type: cell-based
Description: as §1, §2, §3

red blood cells (RBC) = test: Haemolytic assay; assay type: cell-based, human
Description: Erythrocytes (RBC) were isolated from human blood (EDTA whole blood, collected randomly). 50 ul of the 10% RBC suspension (in PBS) was added to 2 ml of sample solutions (concentration range from 0.1 ug/ml to 400 ug/ml) in PBS. The mixture was vortexed briefly and sat for 60 min at room temperature. The mixture was spun at 3K for 10 min and the relative amounts of lysed hemoglobin in the supernatant were measured at 540 nm. The synthetic compounds of present application were tested with this method.

HepG2 = test: MTT assay, liver (HepG2); assay type: cell-based
Description: as §1, §2, §3

HTB-9 = test: MTT assay, bladder (HTB-9); assay type: cell-based
Description: as §1, §2, §3

U2OS = test: MTT assay, bone (U2OS); assay type: cell-based
Description: as §1, §2, §3

SK-Mel-5 = test: MTT assay, skin (SK-Mel-5); assay type: cell-based
Description: as §1, §2, §3

K562 cells [2] = test: Inhibition of leukemia K562 cells growth (cell count); assay type: cell-based, human
Description: Method: • 1. Cells: Human leukemia cells K562 in RPMI1640 medium. • 2. Drug: Tig-S (1000× stock solution in DMSO). • 3. Start cells concentration: 50×10K per ml (500000/ml). • 4. Cells were cultured with or without drug for total of four days. • 5. Cell number is doubled after 2 days of incubation. Fresh medium (equal volume, with or without drug) was then added to culture. • 6. Cells were counted every day.

K562 cells [3] = test: Inhibition of cell cycling (flow cytometry); assay type: cell-based, human; settings: K562, three days, 0-20 ug/ml
Description: Experiment 31: Inhibition of Cell Cycling • 1. Method: Cells: Human leukemia cells K562 cultured in RPMI1640 medium. • 2. Drug: compound from present application or Tig-S (1000× stock solution in DMSO). • 3. Start cells concentration: 500000/ml. • 4. Cells were cultured with drug (0-20 ug/ml) for total of three days. • 5. Cells were harvested by centrifugation (136×g, 6 minutes); fixed with 70% ethanol and kept in −20 C before staining. • 6. Staining: Fixed cells were stained with Propidium iodide/RNase A/0.1% Triton X-100 in PBS. • 7. Flow Cytometry Analysis was performed in Baylor Core Facility with a LSRII instrument. • 8. Analysis: Single cell was gated and cell count—FL2-Area histogram were plotted. • 9. Cell distribution in different cell-cycle phases (G0/G1, S, G2/M) was analyzed.

half-life [1]	IC50 of prostate (DU145) (DU145) [µg/mL]	IC50 of liver (HepG2) (HepG2) [µg/mL]	IC50 of bone (U2OS) (U2OS) [µg/mL]	IC50 of skin (SK-Mel-5) (SK-Mel-5) [µg/mL]	SMILES	IC50 of kidney (A498) (A498) [µg/mL]	hemolytic activity (red blood cells (RBC))	hemolytic activity (red blood cells (RBC); up to 20 ug/ml)	IC50 of bladder (HTB-9) (HTB-9) [µg/mL]	No grow (IC100) (K562 cells [2]; beginning on day 2) [µg/mL]	IC50, inhibition of Leukemia K562 cells growth (K562 cells [2]; cell count, up to four days)	effect on cell cycle (K562 cells [3])
about one	3.6	6	4.5	5.1	CC=C(C)C(=O)OCC1(C)C(O)CCC2(C)C1CCC1(C)C2CC=C2C3CC(C)(C)C(O)C(O)C3(COC(=O)C(C)=CC)C(O)CC21C (stereo not drawn) [Tig-R, 24,28-O-Tigloyl-3β,16α,21β,22α,24β,28-hexahydroxyolean-12-ene]	3.5	no hemolytic activity	do not have hemolytic activity	2.5	–	–	–
–	–	–	–	–	CC=C(C)C(=O)OCC1(C)C(O)CCC2(C)C1CCC1(C)C2CC=C2C3CC(C)(C)C(OC(=O)C(C)=CC)C(O)C3(CO)C(O)CC21C (stereo not drawn) [Tig-S]	–	–	–	–	≥ 2.5	about 0.6 ug/ml	arrested in the S-phase
